Where “and” joins values, the source holds several entries; their conditions need not be identical. Identical values can stand only once. Inconclusive results and toxic doses are left out. Rule as the data show it: active = T/C of 150% or more; inactive = T/C below 125%.
Test system: L1210 leukemia ip in BDF1 mice, survival T/C
Experiment: NCI In Vivo Anticancer Drug Screen. Data for tumor model L1210 Leukemia (intraperitoneal) in B6D2F1 (BDF1) mice
Conditions: endpoint: mean survival time, higher = longer survival
How it was run: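 Transplanted-tumor mice were given test agent; controls received vehicle only. Survival readings from the two groups were divided (treated over control).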

[1] = dose: 25.0 mg/kg/injection, schedule: Q01DX009 (ip), vehicle: saline with Tween-80
[2] = dose: 50.0 mg/kg/injection, schedule: Q01DX009 (ip), vehicle: saline with Tween-80
[3] = dose: 100.0 mg/kg/injection, schedule: Q01DX001 (ip), vehicle: saline with Tween-80
[4] = dose: 100.0 mg/kg/injection, schedule: Q04DX003 (ip), vehicle: saline with Tween-80
[5] = dose: 200.0 mg/kg/injection, schedule: Q01DX001 (ip), vehicle: saline with Tween-80
[6] = dose: 200.0 mg/kg/injection, schedule: Q01DX009 (ip), vehicle: saline with Tween-80
[7] = dose: 200.0 mg/kg/injection, schedule: Q04DX003 (ip), vehicle: saline with Tween-80
[8] = dose: 400.0 mg/kg/injection, schedule: Q01DX001 (ip), vehicle: saline with Tween-80
[9] = dose: 400.0 mg/kg/injection, schedule: Q01DX009 (ip), vehicle: saline with Tween-80
[10] = dose: 400.0 mg/kg/injection, schedule: Q04DX003 (ip), vehicle: saline with Tween-80
[11] = dose: 100.0 mg/kg/injection, schedule: Q04DX003 (ip), vehicle: Klucel (hydroxypropylcellulose) (HPC)
[12] = dose: 100.0 mg/kg/injection, schedule: Q01DX009 (ip), vehicle: saline with Tween-80
[13] = dose: 100.0 mg/kg/injection, schedule: Q04DX002 (ip), vehicle: saline with Tween-80
[14] = dose: 200.0 mg/kg/injection, schedule: Q04DX002 (ip), vehicle: saline with Tween-80
[15] = dose: 400.0 mg/kg/injection, schedule: Q04DX002 (ip), vehicle: saline with Tween-80
[16] = dose: 50.0 mg/kg/injection, schedule: Q01DX001 (ip), vehicle: saline
[17] = dose: 100.0 mg/kg/injection, schedule: Q01DX001 (ip), vehicle: saline
[18] = dose: 200.0 mg/kg/injection, schedule: Q01DX001 (ip), vehicle: saline
[19] = dose: 400.0 mg/kg/injection, schedule: Q01DX001 (ip), vehicle: saline
[20] = dose: 25.0 mg/kg/injection, schedule: Q04DX003 (ip), vehicle: saline

Measured: T/C

Cc1cc(Cl)ccc1NC(=O)Oc1cc(C)c(Cl)c(C)c1Cl
inactive: [1] 100 % of control and 90 % of control | [2] 95 % of control and 103 % of control | [3] 94 % of control | [4] 93 % of control and 109 % of control | [5] 97 % of control | [6] 97 % of control and 105 % of control | [7] 97 % of control and 108 % of control | [8] 101 % of control | [9] 90 % of control | [10] 103 % of control and 113 % of control

CCCCCCCC(O)CCCCC (centres undefined)
inactive: dose: 100.0 mg/kg/injection, schedule: Q01DX009 (ip), vehicle: Klucel (hydroxypropylcellulose) (HPC) 104 % of control | [11] 93 % of control | dose: 200.0 mg/kg/injection, schedule: Q01DX009 (ip), vehicle: Klucel (hydroxypropylcellulose) (HPC) 98 % of control | dose: 200.0 mg/kg/injection, schedule: Q04DX003 (ip), vehicle: Klucel (hydroxypropylcellulose) (HPC) 104 % of control | dose: 400.0 mg/kg/injection, schedule: Q01DX009 (ip), vehicle: Klucel (hydroxypropylcellulose) (HPC) 102 % of control | dose: 400.0 mg/kg/injection, schedule: Q04DX003 (ip), vehicle: Klucel (hydroxypropylcellulose) (HPC) 89 % of control

Cc1cc(C)nc(NCCCCC(N)C(=O)O)n1 (centres undefined)
inactive: dose: 50.0 mg/kg/injection, schedule: Q04DX002 (ip), vehicle: saline 104 % of control | dose: 100.0 mg/kg/injection, schedule: Q04DX002 (ip), vehicle: saline 104 % of control | dose: 200.0 mg/kg/injection, schedule: Q04DX002 (ip), vehicle: saline 101 % of control

NC(CSS(=O)(=O)O)=NCCc1ccccn1
inactive: dose: 12.5 mg/kg/injection, schedule: Q04DX002 (ip), vehicle: Klucel (hydroxypropylcellulose) (HPC) 100 % of control | dose: 25.0 mg/kg/injection, schedule: Q04DX002 (ip), vehicle: Klucel (hydroxypropylcellulose) (HPC) 88 % of control | dose: 50.0 mg/kg/injection, schedule: Q04DX002 (ip), vehicle: Klucel (hydroxypropylcellulose) (HPC) 91 % of control | dose: 400.0 mg/kg/injection, schedule: Q04DX002 (ip), vehicle: Klucel (hydroxypropylcellulose) (HPC) 90 % of control

CC1CCC(C(C)C)/C(=N/S)C1 (centres undefined)
inactive: dose: 75.0 mg/kg/injection, schedule: Q04DX003 (ip), vehicle: saline 93 % of control | dose: 150.0 mg/kg/injection, schedule: Q04DX003 (ip), vehicle: saline 96 % of control | dose: 300.0 mg/kg/injection, schedule: Q04DX003 (ip), vehicle: saline 104 % of control

CC(=O)Oc1cccc(OC(=O)Nc2cccc(Cl)c2C)c1
inactive: [3] 93 % of control | [12] 104 % of control and 107 % of control | [13] 94 % of control and 104 % of control | [4] 88 % of control | [5] 100 % of control | [6] 96 % of control and 90 % of control | [14] 94 % of control and 101 % of control | [7] 86 % of control | [8] 93 % of control | [9] 93 % of control and 100 % of control | [15] 97 % of control and 104 % of control | [10] 89 % of control

O=[N+]([O-])c1ccc(Cl)c(OCCOc2ccc(S(=O)(=O)F)cc2)c1
inactive: [3] 96 % of control | [5] 87 % of control | [8] 90 % of control

CCN(CC)CCSc1ncnc2nc[nH]c12
inactive: dose: 75.0 mg/kg/injection, schedule: Q01DX001 (ip), vehicle: saline 102 % of control | dose: 150.0 mg/kg/injection, schedule: Q01DX001 (ip), vehicle: saline 91 % of control | dose: 300.0 mg/kg/injection, schedule: Q01DX001 (ip), vehicle: saline 104 % of control

C[n+]1ccc(/C=C/c2ccc(O)c3ccccc23)c2ccccc21
inactive: dose: 75.0 mg/kg/injection, schedule: Q01DX001 (ip), vehicle: carboxymethylcellulose (CMC) 100 % of control | dose: 150.0 mg/kg/injection, schedule: Q01DX001 (ip), vehicle: carboxymethylcellulose (CMC) 100 % of control | dose: 300.0 mg/kg/injection, schedule: Q01DX001 (ip), vehicle: carboxymethylcellulose (CMC) 115 % of control

COc1ccc(OC)c(/C=C/C(=O)NCC(O)CO)c1 (centres undefined)
inactive: [4] 105 % of control | [7] 105 % of control | [10] 103 % of control

Nc1c(Br)cccc1Br
inactive: [16] 101 % of control | [17] 109 % of control | [18] 103 % of control | [19] 97 % of control

C[C@@H]1O[C@@H](O[C@H]2CC[C@]3(C=O)[C@H]4CC[C@]5(C)[C@@H](c6ccc(=O)oc6)CC[C@]5(O)[C@@H]4CC[C@]3(O)C2)[C@H](O)[C@H](O)[C@H]1O[C@@H]1O[C@H](CO)[C@@H](O)[C@H](O)[C@H]1O
inactive: dose: 5.0 mg/kg/injection, schedule: Q01DX001 (ip), vehicle: carboxymethylcellulose (CMC) 100 % of control | dose: 10.0 mg/kg/injection, schedule: Q01DX001 (ip), vehicle: carboxymethylcellulose (CMC) 94 % of control

CC(CC(C)(C)C)OS(=O)(=O)c1ccc(Br)cc1 (centres undefined)
inactive: [4] 98 % of control | [7] 101 % of control | [10] 92 % of control

N#C/C(=C\c1ccccc1Cl)c1cccc(Cl)c1
inactive: dose: 25.0 mg/kg/injection, schedule: Q01DX009 (ip), vehicle: other 107 % of control | dose: 50.0 mg/kg/injection, schedule: Q01DX009 (ip), vehicle: other 96 % of control | dose: 100.0 mg/kg/injection, schedule: Q01DX009 (ip), vehicle: other 93 % of control and 90 % of control

CCCCCOS(=O)(=O)c1ccc(Cl)c([N+](=O)[O-])c1
inactive: dose: 12.5 mg/kg/injection, schedule: Q01DX009 (ip), vehicle: saline with Tween-80 93 % of control | [1] 87 % of control | dose: 25.0 mg/kg/injection, schedule: Q04DX003 (ip), vehicle: saline with Tween-80 95 % of control | [2] 98 % of control | dose: 50.0 mg/kg/injection, schedule: Q04DX003 (ip), vehicle: saline with Tween-80 90 % of control

O=C1OC2C(O)C(CO)OC2n2c1cc(=O)[nH]c2=O (centres undefined)
inactive: dose: 100.0 mg/kg/injection, schedule: Q01DX005 (ip), vehicle: saline 111 % of control | dose: 200.0 mg/kg/injection, schedule: Q01DX005 (ip), vehicle: saline 104 % of control

Cc1cc(OC(=O)Nc2cccc(Cl)c2C)ccc1Cl
inactive: [12] 99 % of control | [4] 93 % of control | [6] 99 % of control | [7] 91 % of control | [9] 89 % of control | [10] 98 % of control

C[N+](C)(C)CCCC1C2CCC(C2)C1C[N+](C)(C)C (centres undefined)
inactive: dose: 12.0 mg/kg/injection, schedule: Q01DX009 (ip), vehicle: saline 103 % of control | dose: 12.5 mg/kg/injection, schedule: Q04DX003 (ip), vehicle: saline 106 % of control | dose: 25.0 mg/kg/injection, schedule: Q01DX009 (ip), vehicle: saline 104 % of control | [20] 98 % of control

COc1ccc(CN2CCCN(Cc3ccc(OC)cc3)C2c2ccc(NC(C)=O)cc2)cc1
inactive: dose: 100.0 mg/kg/injection, schedule: Q01DX001 (ip), vehicle: acetone 100 % of control | dose: 200.0 mg/kg/injection, schedule: Q01DX001 (ip), vehicle: acetone 100 % of control

O=S(=O)(F)c1cccc2nsnc12
inactive: dose: 25.0 mg/kg/injection, schedule: Q04DX003 (ip), vehicle: Klucel (hydroxypropylcellulose) (HPC) 95 % of control | dose: 50.0 mg/kg/injection, schedule: Q04DX003 (ip), vehicle: Klucel (hydroxypropylcellulose) (HPC) 101 % of control | [11] 87 % of control | dose: 100.0 mg/kg/injection, schedule: Q04DX003 (ip), vehicle: carboxymethylcellulose (CMC) 93 % of control | dose: 400.0 mg/kg/injection, schedule: Q04DX003 (ip), vehicle: carboxymethylcellulose (CMC) 104 % of control

COP(=O)(OC)c1nc(P(=O)(OC)OC)nc(P(=O)(OC)OC)n1
inactive: [16] 98 % of control | [17] 93 % of control | [18] 93 % of control | [19] 93 % of control

CCN1CCC2CN(C)CCN2C1=S (centres undefined)
inactive: [20] 98 % of control | dose: 50.0 mg/kg/injection, schedule: Q04DX003 (ip), vehicle: saline 105 % of control | [17] 92 % of control | dose: 100.0 mg/kg/injection, schedule: Q04DX003 (ip), vehicle: saline 94 % of control

CCCCCCCCP(=O)(CCCC)CCCC
inactive: [4] 96 % of control | [7] 107 % of control

Cc1cccc(NC(=S)N2CCCCC2)c1
inactive: [13] 100 % of control | [14] 100 % of control | [15] 100 % of control

Source: PubChem BioAssay AID248 (DTP/NCI, 2004)
